Values of other authors in US12161629B2, “Methods and compositions for treatment of glaucoma and related conditions” (Opus Genetics, Inc., priority 2018, dated 2024).
Where a name gives a salt, the structure may show the parent alone. Read-outs that look alike come from different tables or passages of the source.

Assays:
[1] = test system: alpha-1 adrenergic receptor
[2] = test system: eyes of patients

SMILES: CCCC(=O)N1CCCN(c2nc(N)c3cc(OC)c(OC)cc3n2)CC1 [bunazosin]
- inhibitory activity, alpha-1 versus alpha-2 adrenergic receptor [1]: greater inhibitory activity towards (i) the alpha-1 adrenergic receptor compared to the (ii) alpha-2 adrenergic receptor
- effect on intraocular pressure ([2]; in patients, Hara et al., Cardiovascular Drug Reviews (2005)): decreased intraocular pressure in patients

SMILES: Cc1ccccc1N1CCN(CCc2nnc3n2CCCC3)CC1 [dapiprazole hydrochloride]
- effect on intraocular pressure ([2]; in normotensive eyes or in eyes with elevated intraocular pressure): not significantly alter intraocular pressure
